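Where inhibition never reached the appropriate level, the endpoint shown equals the highest concentration tested. Otherwise, values were interpolated linearly from a five-concentration, 48-hour dose response in 96-well plates. Abbreviation: GI50, concentration required for 50% inhibition of growth.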 Calls of active or inactive are those of the source. No stated cut-off is given here; in the data, active = GI50 up to about 1.1 µM and inactive = higher.

The record followed here is ChEMBL document CHEMBL1201862, “PubChem BioAssay data set” (2004).

Among the test systems are PC-3; HCC 2998; UACC-62; RXF 393; NCI/ADR-RES; EKVX; 786-0; OVCAR-4; MCF7; RPMI-8226; OVCAR-8; ACHN; HT-29; MOLT-4; K562; SK-MEL-2; HOP-62; OVCAR-3; SF-539.
What all share (assay): inhibition of tumour cell growth, NCI panel, 48 h

Take `Cc1cc2c(=O)[nH]nc(N)c2c(N)n1`: the GI50 in the experiment on PC-3, with HCC 2998, in the experiment on UACC-62, with RXF 393, in the experiment with NCI/ADR-RES and in the experiment with EKVX was > 100 µM (inactive) each time. Moreover, the GI50 in the experiment with 786-0, in the experiment with OVCAR-4, in the experiment with MCF7, in the experiment on RPMI-8226, in the experiment with OVCAR-8 and in the experiment on ACHN was > 100 µM (inactive) each time. Further, the GI50 in the experiment with HT-29, with MOLT-4, in the experiment on K562, in the experiment with SK-MEL-2 and in the experiment with HOP-62 was > 100 µM (inactive) in each case.
As for `CN(CCc1ccccn1)C(=S)N/N=C(\c1ccccc1)c1ccccn1`, the GI50 is < 0.01 µM (active) in the experiment with PC-3; 1.52 µM (inactive) with HCC 2998; 0.23 µM (active) in the experiment on UACC-62; 1.09 µM (active) in the experiment with RXF 393; < 0.01 µM (active) in the experiment with NCI/ADR-RES; < 0.01 µM (active) in the experiment on EKVX. Moreover, the GI50 in the experiment with 786-0 is 0.0419 µM (active); in the experiment with OVCAR-3, < 0.01 µM (active); in the experiment on OVCAR-4, 0.0334 µM (active); with MCF7 it was < 0.01 µM (active); in the experiment on RPMI-8226, < 0.01 µM (active); with OVCAR-8, < 0.01 µM (active). The GI50 in the experiment with ACHN was < 0.01 µM (active); in the experiment on HT-29 it was < 0.01 µM (active); with MOLT-4, < 0.01 µM (active); in the experiment on K562, < 0.01 µM (active); in the experiment with SK-MEL-2 it was 1.42 µM (inactive); with HOP-62, < 0.0215 µM (active).
Consider `CCOC(=O)c1ccc(C(=O)C(C(C)=O)C(=O)OC(C)(C)C)n1C` (stereo unspecified), for which the GI50 with PC-3, with HCC 2998, with UACC-62, with RXF 393, with NCI/ADR-RES and in the experiment with EKVX was > 100 µM (inactive) each time. The GI50 with 786-0, in the experiment on OVCAR-3, in the experiment on OVCAR-4, in the experiment on MCF7, with RPMI-8226 and in the experiment on OVCAR-8 was > 100 µM (inactive) throughout. For the same molecule, the GI50 in the experiment with ACHN was > 100 µM (inactive); with HT-29, > 100 µM (inactive); in the experiment with MOLT-4, 67.5 µM (inactive); in the experiment on K562 it was > 100 µM (inactive); with SK-MEL-2, > 100 µM (inactive); with HOP-62 it was > 100 µM (inactive).
As to `CCN1CCN(c2ccc(Nc3ccnc4ccc5c(nnn5C)c34)cc2)CC1`, the GI50 was 5.28 µM (inactive) with PC-3; 2.98 µM (inactive) with SF-539; 1.58 µM (inactive) in the experiment with HCC 2998; 13.7 µM (inactive) in the experiment with UACC-62; 7.19 µM (inactive) in the experiment on RXF 393; 9.14 µM (inactive) in the experiment on NCI/ADR-RES. Besides, the GI50 was 13.7 µM (inactive) with EKVX; 3.86 µM (inactive) with 786-0; 5.56 µM (inactive) in the experiment on OVCAR-3; 7.23 µM (inactive) in the experiment with OVCAR-4; 4.44 µM (inactive) in the experiment on MCF7; 13.1 µM (inactive) with OVCAR-8. Also, the GI50 in the experiment with ACHN was 2.99 µM (inactive); in the experiment on HT-29, 3.72 µM (inactive); in the experiment on MOLT-4 it was 4.45 µM (inactive); in the experiment on K562, 3.61 µM (inactive); in the experiment with SK-MEL-2, 12.2 µM (inactive); with HOP-62, 5.05 µM (inactive).
